The values below come from patent US20070232527A1, “Medicaments and methods combining a HCV protease inhibitor and an AKR competitor” (priority 2005, published 2007).

Converted amounts (≈) assume the structure as drawn. Read-outs that look alike come from different tables or passages of the source.

Series [1] has as its system cytosolic enzymes that convert Formula Ia to Formula Ia′. Description: in vitro. The conditions noted are these: human.
Description: (§3) All incubations contained 3 mM magnesium chloride and NADPH-generating system in 0.5 mL of 50 mM potassium phosphate buffer, pH 7.4. Prior to the addition of drug, incubation mixtures were preincubated for 2 min at 37° C. […] The incubation mixtures were vortexed and centrifuged (˜10,000 g) at 4° C. for 10 min; supernatants were analyzed by HPLC coupled with radiometric detector. Heat activated S9 cofactor or mitochondria were used as control. For LC-MS analysis, supernatants were concentrated in SpeedVac for 3 hrs. Incubation volumes were 0.5 mL and the final concentration of the organic solvents in the incubation system was less than 1% (v/v).
(§4) The mobile phase consisted of 10 mM ammonium acetate adjusted to pH 7.0 with 1% ammonium hydroxide (A) and 100% methanol (B).
Series [2] concerns cytosolic enzymes that form the metabolite of Formula Ia. Put plainly: in vitro. The conditions noted are these: monkey.
For series [3] the following is noted: in vivo; cited from earlier work.
Series [4] deals with human liver cytosol. Description: Inhibition of metabolism of 14C-Formula Ia to Formula Ia′ in human liver cytosol.
Description: as §3, §4
The subject of series [5] is human liver cytosol. Put plainly: Incubation of Formula Ia or Formula XXVII in human liver cytosol with AKR competitor (LC-MS, M+2 metabolite). It counts as in vitro ADME. As for the experimental part:
Prior to the addition of drug, the incubation mixture was preincubated for 2 min at 37° C. […] Human liver microsomes and cytosol without NADPH served as negative controls. Parallel incubations with the compound of Formula Ia were used as positive controls. […] All incubations were performed as described previously for human liver cytosols. […] Parallel incubations with the compound of Formula Ia were used as positive controls.

The nature of series [6]: In vivo inhibition study of Formula Ia with AKR competitor diflunisal, plasma PK. The conditions noted are these: cynomolgus monkeys plasma; as a function of diflunisal dose 0, 62.5, 125, 250 mg. The method, then: An in vivo study was conducted in cynomolgus monkeys where 200 mg Formula Ia and 0 (control), 62.5, 125, or 250 mg diflunisal (Dolobid) was administered as illustrated below. All six monkeys were first dosed with Formula Ia with blood samples collected over a 12 hr period for plasma pharmacokinetics (PK) of Formula Ia prior to administration of diflunisal (dose-escalation). Four doses of diflunisal were subsequently administered every 12 hr with Formula Ia administered at each 4th diflunisal dose after which blood samples were collected for PK assessment of Formula Ia. The following chart summarizes the timing of Formula Ia and diflunisal administration.

Series [7] is described as follows: Clinical study of the effect of ibuprofen on pharmacokinetics of Formula Ia. It is filed as in vivo. Conditions: human, single 400 mg dose PO fasted, alone or with ibuprofen 600 mg TID; for AUC: plasma, po, 400 mg. As for the experimental part:
The study was conducted in an open-label, randomized, 3-period, 2-sequence crossover manner (FIG. 6). During Period 1, all 12 subjects were administered a single 400 mg dose of Formula Ia. During Periods 2 and 3, subjects received multiple doses of ibuprofen (600 mg TID) in a randomized sequence. The ibuprofen was administered beginning on Day 1 (3 days prior to Formula Ia administration) and continued through Day 6. A single dose of Formula Ia was administered on Day 4 (2 hours after administration of the AM dose of ibuprofen). Plasma samples for pharmacokinetic and metabolite analyses of Formula Ia was collected at predose (0 hour), 0.5, 1, 1.5, 2, 2.5, 3, 4, 5, 6, 7, 8, 9, 10, 12, 24, 36, 48, and 72 hour postdose for each period. (The 48 and 72 hour postdose samples for Period 1 was collected in an outpatient setting). In Periods 2 and 3, additional blood samples were collected immediately prior to dosing of the Formula Ia on Day 4 and two hours post ibuprofen administration on Day 5 for determination of ibuprofen concentration.
Treatment A: Formula Ia (4×100 mg capsules); single dose, PO following an overnight fast, administered on Day 1 or Period 1.
Treatment C: Ibuprofen 600 mg; PO, TID from Day 1 to Day 6 Formula Ia (4×100 mg capsules); single dose, PO following an overnight fast, administered on Day 4 (2 hours after the AM ibuprofen dose).
Subjects received a single dose of Formula Ia on Day 1 of Period 1. In Period 2 and Period 3, subjects were treated for 6 days with ibuprofen and received a single dose of Formula Ia on Day 4 of each period. There were at least 7 days between administration of Formula Ia in Period 1 and Period 2 and at least 14 days between administration of Formula Ia in Period 2 and 3.
The proportion of subjects with plasma concentrations above the in vitro IC50 and IC90 for the HCV replicon at each time point was determined. This plasma concentration data was used to estimate the following primary pharmacokinetic variables for the determination of bioavailability comparisons: • AUC—Area under the plasma concentration-time. • Cmax—Maximum observed plasma concentration. • Tmax—Time to maximum observed plasma concentration. • t1/2—Terminal phase half-life.

Series [8] addresses T1, AKR1C2 (Homo sapiens, UniProt P52895).
T1 sequence (P52895 1-323): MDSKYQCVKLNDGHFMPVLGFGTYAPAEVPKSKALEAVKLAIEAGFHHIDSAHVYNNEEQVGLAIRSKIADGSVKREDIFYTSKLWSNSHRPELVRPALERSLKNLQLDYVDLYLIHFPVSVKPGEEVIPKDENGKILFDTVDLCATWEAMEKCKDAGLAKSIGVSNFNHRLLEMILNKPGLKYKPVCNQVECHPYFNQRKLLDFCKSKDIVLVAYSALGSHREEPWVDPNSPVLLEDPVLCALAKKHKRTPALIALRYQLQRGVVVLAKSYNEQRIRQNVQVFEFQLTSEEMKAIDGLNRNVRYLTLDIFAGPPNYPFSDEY
Put plainly: Incubation with S9 fraction of recombinant human AKR1C2. It is filed as in vitro ADME. On the set-up: made in house. Conditions: 20 μM 14C-radiolabeled compound; S9 2.5 mg protein/mL; NADPH. As for the experimental part: (§1) Recombinant human AKRs (AKR1C2, AKR1C3 and AKR1C4) were grown, sonicated and centrifuged at ˜10,000 g to obtain S9 fractions. Incubations of ^14C-radiolabeled compound of Formula Ia, ^14C-radiolabeled compound of Formula Ib and ^14C-radiolabeled compound of Formula Ic (all at 20 μM) with S9-fractions from three recombinant human AKRs (2.5 mg protein/mL) were conducted as described above. [drawing 161]
(§2) The samples were analyzed by HPLC-coupled with radiometric detector and confirmed by LC-MS.

For series [9], the target named is T2, AKR1C3 (Homo sapiens, UniProt P42330).
T2 sequence (P42330 1-323): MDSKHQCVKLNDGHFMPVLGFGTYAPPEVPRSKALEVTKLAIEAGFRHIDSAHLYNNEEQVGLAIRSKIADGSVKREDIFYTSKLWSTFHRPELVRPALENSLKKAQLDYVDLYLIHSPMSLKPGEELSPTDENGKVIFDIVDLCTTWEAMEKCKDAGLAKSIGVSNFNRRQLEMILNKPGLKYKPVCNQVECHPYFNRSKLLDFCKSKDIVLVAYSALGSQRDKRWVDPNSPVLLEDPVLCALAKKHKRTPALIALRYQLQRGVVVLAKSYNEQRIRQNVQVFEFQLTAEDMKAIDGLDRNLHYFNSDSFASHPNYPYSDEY
Description: Incubation with S9 fraction of recombinant human AKR1C3. The conditions noted are these: 20 μM 14C-radiolabeled compound; S9 2.5 mg protein/mL; NADPH. On the set-up: made in house. It is filed as in vitro ADME. As for the experimental part:
as §1, §2

In series [10] the target is T1, AKR1C2. Conditions: tibolone as a substrate; cited from earlier work.
In series [11] the target is T2, AKR1C3. The conditions noted are these: tibolone as a substrate; cited from earlier work.
The subject of another series is Human liver S9. Put plainly: Inhibition of metabolism of 14C-Formula Ia to Formula Ia′ in human liver S9. It is filed as in vitro ADME. The conditions noted are these: S9; concentration not given.

What is called IC50 is the concentration that gives 50% inhibition. As usually defined, the inhibition is the relative decrease from the control value, in per cent. Usually Vdss stands for a proportionality between amount in the body and measured concentration, not a real space. The Ki is the dissociation constant of the complex between target and ligand, obtained from inhibition or displacement. Take `O=C(O)c1cc(-c2ccc(F)cc2F)ccc1O` [Diflunisal]: half-maximal inhibition in series [1] (pH 7.4) (IC50 at 120 min) required 1 µg/mL (≈ 4 µM). The inhibition at 2 h, 200 µM in series [1] (pH 7.4, % of Inhibition on Metabolite Formation of Compound Formula Ia) came to 89.4%. Moreover, the IC50 in series [2] is 11 µM. For the same compound, in series [3], the volume of distribution (Vdss) is given as 0.1 L/kg and the protein binding result is given as “about 99%”. Further, on human liver cytosol [4] (human cytosol, assuming the liver to plasma ratio equals 1), the Ki stood at 0.5 µg/mL.

In the case of `CC(C)(C)NC(=O)N[C@H](C(=O)N1C[C@H]2[C@@H]([C@H]1C(=O)NC(CC1CCC1)C(=O)C(N)=O)C2(C)C)C(C)(C)C` (stereo partly drawn) [Formula Ia, (1R,5S)—N-[3-Amino-1-(Cyclobutylmethyl)-2,3-Dioxopropyl]-3-[2(S)-[[[(1,1-Dimethylethyl)Amino]Carbonyl]Amino]-3,3-Dimethyl-1-Oxobutyl]-6,6-Dimethyl-3-Azabicyclo[3.1.0]Hexan-2(S)-Carboxamide], the “1ST PARENT PEAK AREA” value turned out to be 6.19E+07 in the series with human liver cytosol [5] (HL Cytosol w/ NADPH + 50 uM Mefenamic acid); 6.33E+07 in the series with human liver cytosol [5] (HL Cytosol w/ NADPH + 100 uM Flufenamic acid); 6.23E+07 with human liver cytosol [5] (HL Cytosol w/ NADPH + 100 uM Phenolphthalein); 6.10E+07 in the series on human liver cytosol [5] (HL Cytosol w/ NADPH + 200 uM Diflunisal); 3.95E+07 in the series on human liver cytosol [5] (HL Cytosol w/ NADPH Vehicle Control (no inhibitor)); 7.41E+07 in the series with human liver cytosol [5] (HL Cytosol w/o NADPH, 20 μM, 60 min). Also, the “AUC ratio (Formula Ia′ to AUC for the compound)” value in [6] was “decline”. For the same compound, the AUC is 2040 ng·h/mL in [7] (read-out: AUC(all), Mean (% CV)) and 2070 ng·h/mL in series [7] (read-out: AUC(l), Mean (% CV)). Also, the AUC(0-t) in series [7] (plasma Formula Ia, read-out: AUC(last), Mean (% CV)) came out at 2000 ng·h/mL. For the same compound, in series [7] (plasma Formula Ia, read-out: Cmax, Mean (% CV)), the Cmax stood at 571 ng/mL. In addition, the MRT in series [7] (plasma Formula Ia, read-out: MRT(l), Mean (% CV)) worked out at 6.57 h. Moreover, the Tmax in [7] (plasma Formula Ia, read-out: Tmax (median)) is 1.75 h. The half-life in series [7] (plasma Formula Ia, read-out: t1/2, Mean (% CV) (converted)) is 9.11 h. Moreover, the “metabolism by recombinant AKR1C2” value on AKR1C2 [8] is given as “yielded compound of Formula Ia′”. For the same compound, the “metabolism by recombinant AKR1C3” value on AKR1C3 [9] is “yielded compound of Formula Ia′”.

Take `CC(CCC(=O)O)C1CCC2C3C(O)CC4CC(O)CCC4(C)C3CCC12C` (stereo not drawn) [5beta-cholanic acid 3alpha, 7-alpha-diol]: the figures for the concentration for half-maximal inhibition (IC50) at AKR1C2 [10] and on AKR1C3 [11] were 0.21 µM and 74.4 µM, respectively.

Turning to `O=[N+]([O-])c1ccc(OP(=O)(O)Oc2ccc([N+](=O)[O-])cc2)cc1` [BNPP, bis(4-nitrophenyl)-phosphate], the “inhibited formation of the compound of Formula Ia′” value in the series on Human liver S9 is 57.4%; in the series with human liver cytosol [4] (cytosol, concentration not given), 63.4%. Also, in the series with human liver cytosol [4] (Table 4, human liver cytosol, inhibitor 1000 μM, 2 hr incubation), the “% Inhibition on Metabolite Formation of Compound Formula Ia” value was 63.4%.
